Consider two compounds from patent US4409388A, “1,2,4-Triazole derivatives, and their use as antifertility agents” (Gruppo Lepetit S.p.A., priority 1978, dated 1983).

Test [1] deals with female Syrian golden hamsters. Kind of test: post-coital/post-implantation antifertility activity, subcutaneous, pregnant hamsters. Particulars: days 4-8 of pregnancy; for activity according to the criteria (reduction of live fetuses in at least 60% of the treated animals): 10 mg/kg s.c. daily for 5 days, hamsters; for ED50: Mesocricetus auratus, sc, 120 h, s.c. hamsters, daily for 5 days, sesame oil, read-out: ED50 (100% activity, absence of live fetuses, in 50% of the animals). Format: in vivo. As to the method:
(§1) Representative experiments for assessing antifertility activity were carried out with female Syrian golden hamsters weighing 100 to 130 g. The animals were mated and the presence of sperm in the vagina was taken as evidence of mating. The day sperm was detected and considered day one of pregnancy, since in our laboratories and those of other investigators 90 to 100% of animals that mate as evidenced by vaginal sperm are pregnant.
(§2) Pregnancy was later confirmed at the time of autopsy by presence of fetuses or implantation sites in the uterus.
(§3) Even if an animal aborts the fetus, implantation scars still remain as evidence that the animal has been pregnant.
The animals were autopsied on day 14 of pregnancy and the uteri were examined for evidence of pregnancy (implantation sites, fetal resorptions or live fetuses), hemorrage, and evidence of abnormalities of the uterus, placenta or fetuses.

Another test concerns hamsters. Kind of test: antifertility activity, oral route, pregnant hamsters. In kind it is in vivo, Syrian golden hamsters. As to conditions: for reduction of live fetuses: oral dosage of 20 mg/Kg, hamsters. On the procedure: as §1, §2, §3
The animals were autopsied on day 14 of pregnancy and the uteri were examined for evidence of pregnancy (implantation sites, fetal resorptions or live fetuses), hemorrage, and evidence of abnormalities of the uterus, placenta or fetuses. A compound was considered to be active if there was a reduction of live fetuses in at least 60% of the treated animals and the presence of implantation sites proves the animal to have been pregnant. […] The compounds were then studied for dose-activity relationships and the corresponding ED50 values i.e., 100% activity (absence of live fetuses) in 50% of the animals, were also determined. The following table reports the ED50 values of some representative compounds of the invention:
Favorable results were also obtained by administering the compounds of the invention by oral route. The experiments for assessing this property were carried out on hamsters following the same procedure as above, with the obvious exception that the compounds were administered orally instead of subcutaneously.

Take `COc1cccc(-c2n[nH]c(-c3ccccc3CO)n2)c1` [Example 1, 5-(2-hydroxymethylphenyl)-3-(3-methoxyphenyl)-1H-1,2,4-triazole]: the “activity according to the criteria (reduction of live fetuses in at least 60% of the treated animals)” value in test [1] is recorded as “active”. Besides, the ED50 (commonly the midpoint of the dose-response relation) in test [1] was 0.08 mg/kg; with hamsters (Mesocricetus auratus, po, 120 h, p.o. hamsters, daily for 5 days, days 4-8 of pregnancy), 10 mg/kg. Besides, the “reduction of live fetuses” value in the test on hamsters is given as “about 60%”.

As for `COc1cccc(-c2nc(-c3ccccc3C=O)n[nH]2)c1` [Example 3, 2-[5-(3-methoxyphenyl)-1H-1,2,4-triazol-3-yl]benzaldehyde], in test [1], the “activity according to the criteria (reduction of live fetuses in at least 60% of the treated animals)” value is recorded as “active” and the ED50 turned out to be 0.1 mg/kg. For the same compound, the “reduction of live fetuses” value in the test with hamsters is given as “about 60%”.
